# Measurements taken from paper PMC8997995, “Amphiphilic Cell-Penetrating Peptides Containing Natural and Unnatural Amino Acids as Drug Delivery Agents” (Cells, 2022).
# Non-standard residues stand in square brackets, D forms with d. Residues, ends and D or L forms follow the SMILES beside them. Dip = N[C@H](C(=O)O)C(c1ccccc1)c1ccccc1
# How the values were obtained:
# MDA-MB-231 cells = experiment: Confocal microscopy of cellular uptake; format: cell-based, human; conditions: MDA-MB-231, F’-GpYEEI 2 µM + peptide 10 μM, 3 h, 37 °C
# Method: Coverslips were placed in a 6-well plate wells and covered with 2 mL of media. Human epithelial mammary gland/breast adenocarcinoma cells (MDA-MB-231, ATCC No. HTB-26) were used. 200,000 cells per well were seeded with DMEM media low glucose (4 mM L-glutamine, 1000 mg/L glucose, and 110 mg/L sodium pyruvate) overnight on a cover glass in 6-well plates. The cells were treated with the physical mixture of F’-GpYEEI and [DipR]5 (10 μM) or F’-[K(DipR)5] in DMEM media low glucose without FBS and incubated for 3 h at 37 °C in a humidified atmosphere of 5% CO2. Next, the media was removed, and cells were washed three times with 2 mL PBS in each well. Cells were fixed in 2 mL of 3.7% formaldehyde for 10 min and were washed 3 times in PBS (pH 7.6). 1 mL of the Texas red solution was pipetted (40 µL of Texas Red and 100 mg BSA in 10 mL of PBS) in each well to stay for 1 h at room temperature. The cells were washed at least 3 times with 2 mL of PBS for 5 min. The nucleic staining with 13 µL of DAPI on each slide was completed. Cells were covered with a coverslip carefully without air bubbles. The slide dried horizontally overnight in a dark place that had airflow. The cells were photographed and video recorded by using Nikon Instruments A1 Confocal Laser Microscope Series. […]
# CCRF-CEM cells = experiment: Cellular uptake by flow cytometry in CCRF-CEM cells; format: cell-based, human; conditions: 3 h
# Method: CCRF-CEM and SK-OV-3 cells were used to measure the cellular uptake of a fluorescent-labeled phosphopeptide (F’-GpYEEI) (2 µM), stavudine (F’-d4T) (2 µM) lamivudine (F’-3TC) (1–2 µM), emtricitabine (F’-FTC) (2 µM), and siRNA (F’-siRNA) (36 nM) with the least toxic concentration for each linear and the cyclic peptide (10 µM). The uptake was measured in the presence and absence of the peptides. The SK-OV-3 (0.5 million) and CCRF-CEM (a million) cells were incubated in each well of 6-well plates with the synthesized peptide and the fluorescent-labeled compound in one well. Another well contained the fluorescent-labeled compound alone for 3 h in an incubator (37 °C in a humidified atmosphere of 5% CO2). […] For more details, please refer back to the cytotoxicity method described above.
# The cells were transferred to FACS analysis tubes after being washed with phosphate-buffered saline (PBS). The cells were centrifuged 2500 RPM for 5 min with Fisher Scientific accuSpin Micro 17 to precipitate the cells and to allow replacing the supernatant. The cells were then vortexed with Nerl Blood Bank Saline pH 7–7.2 (flow cytometry buffer) and transferred to the tube through a sterile cell strainer 40 µm Nylon Mesh. Finally, the cells were resuspended in flow cytometry buffer and analyzed by flow cytometry (FACSVerse model, Becton Dickinson, San Jose, CA, USA) using the FITC channel and the BD FACSuite software. The device was washed before each experiment, and the flow rate was set at medium. Finally, the cells were analyzed by using FITC channel […] argon laser for the excitation and the emitted 519 nm fluorescence for detection. The data presented was based on the FITC-A mean intensity signal for 10,000 cells collected. All assays were performed in triplicates. Results were evaluated to determine whether the peptides are facilitating the fluorescence compound to cross the membrane.
# To determine the mechanism of the cellular uptake, F’-[K(DipR)5] or the physical mixture of the F’-GpYEEI and [DipR]5 were used to measure the fluorescence in the treated CCRF-CEM cells. F’-[K(DipR)5] (5 or 10 µM) or the physical mixture of the F’-GpYEEI (2 µM) and [DipR]5 (5 or 10 µM) were incubated with CCRF-CEM cells over 3 h. After each incubation, the medium containing the peptide and cells was removed. The same protocol as the cellular uptake study was used to prepare the cells as described above. Finally, the cells were resuspended in the buffer and analyzed by flow cytometry using the FITC channel and the BD FACSuite software. The data presented was based on the percentage of FITC-A mean intensity signal for 10,000 cells collected. All assays were performed in triplicates.
structure (smiles),measurement,setting,value
N=C(N)NCCC[C@@H]1NC(=O)[C@H](C(c2ccccc2)c2ccccc2)NC(=O)[C@H](CCCNC(=N)N)NC(=O)[C@H](C(c2ccccc2)c2ccccc2)NC(=O)[C@H](CCCNC(=N)N)NC(=O)[C@H](C(c2ccccc2)c2ccccc2)NC(=O)[C@H](CCCNC(=N)N)NC(=O)[C@H](C(c2ccccc2)c2ccccc2)NC(=O)[C@H](CCCNC(=N)N)NC(=O)[C@H](C(c2ccccc2)c2ccccc2)NC1=O [[DipR]5] (cyclo([Dip]R[Dip]R[Dip]R[Dip]R[Dip]R)),localization of F’-GpYEEI delivered by the peptide,MDA-MB-231 cells,mostly localized in the cytosol
same,increase of cellular uptake of F′-3TC vs cargo alone,"CCRF-CEM cells; F’-3TC 2 µM, peptide 10 µM, flow cytometry, n = 3",14 fold
same,increase of cellular uptake of F’-FTC vs cargo alone,"CCRF-CEM cells; F’-FTC 2 µM, peptide 10 µM, flow cytometry, n = 3",13 fold
same,increase of cellular uptake of F’-GpYEEI,"CCRF-CEM cells; F’-GpYEEI 2 µM, peptide 5 µM, n = 3",43 fold
same,cellular uptake of F’-GpYEEI relative to [R5K]W7A,"CCRF-CEM cells; side-by-side comparison, F’-GpYEEI 2 µM, peptides 10 µM",5 fold
